This passage reports AC50 results from PubChem BioAssay AID463074 (Broad Institute, 2010).

The source made the active and inactive calls.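 How the source made its calls: active means AC50 no more than tenfold above the top dose tested, or full inhibition at every dose with a flat fit (cut at about 19 µM in these data); inconclusive means flat curve fit with inhibition between 30% and 70%, or poor fit; inactive means AC50 more than tenfold above the top dose tested.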 Bounds are passed on as bounds.

In this test the test system is HMLE_sh_eGFP viability, CellTiter-Glo luminescence, 72 h. The test can be described thus: viability loss of HMLE_sh_eGFP cells – cell-based, luminescence, counter-screen for HMLE_sh_ECad selective toxicity project, dose response (AID 463074).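 Further: counterscreen control line to flag general toxicity for the HMLE_sh_ECad screen; potency for loss of viability as luminescence drops below DMSO wells.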 On the technique in general: The purpose of a counterscreen is to sort out artefacts and off-target activity.
As usually defined, the AC50 is the concentration giving half of the maximal activity seen. Turning to `C[C@H](CO)N1C[C@H](C)[C@@H](CN(C)S(=O)(=O)c2ccc(F)cc2)Oc2ccc(NC(=O)Nc3ccc(C(F)(F)F)cc3)cc2C1=O`, the half-maximal activity concentration (AC50) was 17.1 µM.
For `COc1cc2c(cc1NC(=O)Nc1ccc(C)cc1)oc1ccccc12` the value was 11.3 µM.
For `O=c1[nH]c(/C(Cl)=C/c2cc(Cl)ccc2O)nc2cc(Cl)ccc12` the value was 2.37 µM; for `O=C1/C(=C/c2ccncc2)Oc2cc(OS(=O)(=O)c3ccccc3)ccc21`, 4.81 µM.
For `O=C(NCCc1c[nH]c2ccccc12)C1CCC(Cn2c(=S)[nH]c3ccccc3c2=O)CC1` (stereo not given) the value was 0.707 µM; for `Cc1ccc(Cl)cc1N1CCN(C(CC(C)C)c2nnnn2CC2CCCO2)CC1` (stereo not given), 0.808 µM; for `O=C(N/N=C/c1cc(Cl)cc([N+](=O)[O-])c1O)NC12CC3CC(CC(C3)C1)C2`, 4.59 µM.
On to `Nc1c(C(O)(C(F)(F)F)C(F)(F)F)cc(C(O)(C(F)(F)F)C(F)(F)F)c2ccccc12`, for which the AC50 is 3.95 µM.
The same measure for `Nc1c(C(=O)Nc2ccccc2)c2nc3ccccc3nc2n1CCCN1CCOCC1`: 6.77 µM; for `Cc1cccc(-c2nc(Nc3cccc(O)c3)c3ccccc3n2)c1`: 5.27 µM.
The same measure for `COc1ccc2nc(N=Nc3ccc(O)c4ccccc34)sc2c1`: 3.27 µM; for `OC(COc1ccc2ccccc2c1Br)Cn1cnc(-c2ccccc2)c1` (stereo not given): 6.05 µM.
For `COCCNc1nnc(SC(C)C(=O)Nc2ccc(-c3nc4ccc(C)cc4s3)cc2)s1` (stereo not given) the value was 10.5 µM; for `Cc1cc([N+](=O)[O-])ccc1-c1ccc(C2Nc3ccccc3C(=O)N2O)o1` (stereo not given), 6.45 µM.
Consider `CCc1ccc([C@@H]2CC=C(C(=O)O)[C@H](c3ccc(Cl)cc3)N2S(=O)(=O)c2ccc(C)cc2)cc1`, for which the AC50 is 7.1 µM.
`CCCSc1nnc(CSc2nc3ccccc3s2)n1-c1ccccc1`: the AC50 was 3.01 µM.
For `O=S(=O)(Nc1ccc(-c2nnc(SCc3ccc(Cl)cc3)o2)cc1)c1ccccc1` the value was 3.6 µM; for `COc1ccc(C[C@H]2CN3C(=NC[C@@H]3Cc3ccccc3)N2CCNC(=O)CCC2CCCCC2)cc1`, 7.04 µM; for `COc1cc(Nc2ccc(C)cc2)c([N+](=O)[O-])nc1[N+](=O)[O-]`, 5.74 µM.
In the case of `Cc1ccc2c(c1)c1ncn(CCC3=CCCCC3)c(=O)c1n2C`, the concentration at half-maximal activity (AC50) is 1.09 µM.
The same measure for `CCn1c(C)c(C)c2cc(C(=O)Nc3cccc(Cl)c3)ccc21`: 4.05 µM; for `O=C(Nc1ccc2c(c1)CCC2)c1cc(S(=O)(=O)Nc2ccc(F)cc2)c(Cl)cc1Cl`: 5.38 µM; for `COc1ccc(C(=O)/C=C/c2ccc(OCc3ccccc3)cc2)cc1CSCC(=O)O`: 5.81 µM.
For `CCc1ccc2nc(N(CCCN(C)C)C(=O)c3ccc(S(=O)(=O)N4CCCc5ccccc54)cc3)sc2c1` the value was 6.98 µM.
The same measure for `CC(C)(C)c1ccc(/C=C/C(=O)c2ccc(NC3=NCCCS3)cc2)cc1`: 6.11 µM; for `CCCCN=C(NNc1ccc(Br)cc1)C(=O)OCC`: 3.99 µM; for `CC1=C(/C=C/C(C)=C/C=C/C(C)=C/C(=O)Nc2ccc(O)cc2)C(C)(C)CCC1`: 2.26 µM.
As to `O=c1[nH]c(NNC(=S)NCc2ccccc2)nc2c1C1(CCCCC1)Cc1ccccc1-2`, the AC50 is 3.91 µM.
With `N#C/C(=C/c1cn(-c2ccccc2)nc1-c1cccc(OCc2ccccc2)c1)C(=O)NCCCn1ccnc1`, the half-maximal activity concentration (AC50) was 6.25 µM.
For `O=C(Nc1ccc([N+](=O)[O-])cc1)Nc1ccc(OC(F)F)c(Cl)c1` the value was 2.09 µM; for `O=C(N/N=C/c1cc(Cl)ccc1O)c1ccc(Br)cc1`, 4.41 µM.
For `Cc1ccc(/C=C/C(=O)Nc2ccc(Oc3ccccc3)cc2)o1` the value was 5.42 µM.
Take `c1ccc(-c2nnc3sc(CN4CCc5ccccc54)cn23)cc1`: the concentration at half-maximal activity (AC50) is 3.51 µM.
Regarding `CCOC(=O)N1CCN(CCC(=O)c2ccc(Cl)cc2)CC1`, the half-maximal activity concentration (AC50) was 14 µM.
The same measure for `Cc1cc(OCC(=O)Nc2ccc(S(=O)(=O)NC3=NCCCCC3)cc2)c(C(C)C)cc1Cl`: 10.2 µM.
For `Cc1cccc(N2CCN(C(=O)c3cc4n(n3)C(C(F)(F)F)CC(c3ccco3)N4)CC2)c1C` (stereo not given) the value was 9.71 µM; for `CN(C)CCNc1nc2sc3c(c2c(=O)n1-c1ccccc1)CCCCC3`, 3.22 µM; for `Cn1ncc2c(Nc3cccc(Cl)c3)nc(Nc3cccc(Cl)c3)nc21`, 3.71 µM.
Regarding `O=c1cc(-c2ccccc2)[nH]n1-c1nc2ccccc2s1`, the AC50 is 5.53 µM.
Consider `Cc1cc(C)cc(NS(=O)(=O)c2ccc(Oc3ncc(C(F)(F)F)cc3Cl)cc2)c1`, for which the concentration at half-maximal activity (AC50) is 4.3 µM.
The same measure for `C=Cn1ccnc1P(=S)(c1ccc2c(c1)c1ccccc1n2CC)c1nccn1C=C`: 2.18 µM; for `CCOC(=O)c1c(-c2ccc(Cl)cc2)csc1NC(=O)CNCc1ccco1`: 5.2 µM.
For `CCOC(=O)C(=Cc1ccc(-n2cncn2)cc1)C(=O)OCC`, the concentration at half-maximal activity (AC50) was 6.4 µM.
In the case of `Cc1cccc(CN2C(=O)[C@@H]3Cc4c([nH]c5ccccc45)C(C)(C)N3C2=O)c1`, the half-maximal activity concentration (AC50) was 12.3 µM.
For `Cc1cc2oc(=O)c(CC(=O)NCCCN(C)C)c(C)c2c2occ(C(C)(C)C)c12` the value was 2.85 µM.
Turning to `O=C(Nc1nnc(-c2ccc(Cl)cc2)o1)c1nc2ccccc2s1`, the half-maximal activity concentration (AC50) was 5.29 µM.
The same measure for `C=C(C)COc1ccc(-c2n[nH]c(C)c2-c2ccc(Br)cc2)c(O)c1`: 3.25 µM; for `C[C@@H]1O[C@@H](O[C@@H]2C=C3CCC4C(CC[C@]5(C)[C@@H](c6ccc(=O)oc6)CC[C@]45O)[C@@]3(C)CC2)[C@H](O)[C@H](O)[C@H]1O` (stereo not given in full): less than 0.16 µM.
The same measure for `Cc1[nH]n(-c2ccc([N+](=O)[O-])cc2)c(=O)c1C=NCCN1CCN(C(=O)C(C)C)CC1`: 5.14 µM.
For `COC(=O)Nc1nc2ccc(-c3n[nH]c(=O)c4ccccc34)cc2[nH]1`, the AC50 is 1.88 µM.
The same measure for `CC1(C)C=Cc2c(ccc3c2OC[C@H](c2ccc(O)cc2O)C3)O1`: 4.43 µM.
For `CCCc1ccc(C(=O)NNc2ccc(F)cc2)cc1` the value was 1.99 µM; for `CC(C)(C)c1nn(-c2ccccc2)c2[nH]c(=O)c(C=O)cc12`, 8.18 µM.
The same measure for `O=C(C#Cc1ccccc1)Nc1cccc(F)c1`: 3.43 µM.
Take `CC12CCC3C(CC=C4CC(O)CCC43C)C1C/C(=C\c1ccccc1F)C2=O` (stereo not given): the AC50 is 4.04 µM.
The same measure for `CCCCCCOc1ccc(OC(=O)c2ccncc2)cc1`: 5.43 µM; for `O=C(CN1CCCC1)Nc1ccc(Cl)cc1C(=O)c1ccccc1`: 15.3 µM; for `C[C@H](CO)N1C[C@H](C)[C@@H](CN(C)S(=O)(=O)c2ccccc2)Oc2ccc(NC(=O)Nc3ccc(C(F)(F)F)cc3)cc2C1=O`: 12.9 µM.
For `S=C1NC[C@H](Cc2ccccc2)N1CCCCC1CCCCC1` the value was 4.19 µM.
The same measure for `O=C(c1ccco1)c1nnn(Cc2ccccc2)c1-c1ccccc1`: 6.47 µM; for `CNC(=O)NC(=O)C(C)OC(=O)c1c2c(nc3ccccc13)/C(=C/c1cccs1)CC2` (stereo not given): 4.01 µM; for `O=C(Nc1ccccc1)C1=C[C@@H](c2ccc(C(F)(F)F)cc2)C[C@@H](OCc2ccc(CO)cc2)O1`: 7.43 µM.
As for `CN1CCN(CCCN2c3ccccc3Sc3ccc(Cl)cc32)CC1`, the concentration at half-maximal activity (AC50) was 5.25 µM.
For `COc1ccc(C)cc1N1C(=N)/C(=C2/Nc3ccccc3S2)C(c2ccccc2)C1=O` (stereo not given) the value was 17.8 µM; for `COc1cccc(-c2sc3ccc(OC)cc3c2C#CCCO)c1`, 8.26 µM.
Take `CCOC(=O)CS(=O)(=O)c1nc(-c2ccccc2)cc(C(F)(F)F)n1`: the AC50 is 3.25 µM.
Consider `COc1ccc2nc(NC(=O)c3ccc([N+](=O)[O-])o3)sc2c1`, for which the AC50 was 3.77 µM.
As for `N#Cc1c(N)nc2c(c1-c1cccc(O)c1)CCCCCC2`, the AC50 is 16.3 µM.
The same measure for `CCn1c(N2CCN(S(=O)(=O)c3ccc(F)cc3)CC2)nc2ccccc21`: > 19.5 µM (inactive); for `Cc1cc(OCc2cc(C(=O)N3CCC(Oc4cccnc4)CC3)no2)cc(C)c1Cl`: 8.31 µM; for `Cc1ccc(Sc2c([N+](=O)[O-])c(=O)n(C)c3ccccc23)cc1`: 7.05 µM.
For `Cc1cccc(NS(=O)(=O)c2ccc(C3CCCCC3)cc2)c1` the value was 5.18 µM; for `Cc1ccc(-n2nnnc2Sc2ccc(S(=O)(=O)NCCN(C)C)cc2[N+](=O)[O-])cc1`, 6.72 µM.
With `CCN(c1ccc(NC(=O)CCc2nc3sc4c(c3c(=O)[nH]2)CCCC4)cc1)C(C)C`, the concentration at half-maximal activity (AC50) is 9.45 µM.
For `CCOC(=O)C1=C(C)N2C(=C(C#N)[C@@H]1c1ccc(C(=O)OC)cc1)SC[C@@]2(O)C(C)(C)C` the value was 4.79 µM.
Take `CC(C)(C)OC(=O)NCc1ccc(NC(=O)c2nc[nH]c2C(=O)NCCCNC(=O)c2[nH]cnc2C(=O)Nc2ccc(CNC(=O)OC(C)(C)C)cc2)cc1`: the AC50 was 1.92 µM.
The same measure for `O=c1c2c3c(sc2ncn1/N=C/c1ccc([N+](=O)[O-])o1)CCCC3`: 6.48 µM; for `COc1cc(Cl)c(NC2=CC(=O)C(=O)c3ccccc32)c(OC)c1`: 3.57 µM; for `C/C(=N\N=C(/N)SC1CC(=O)N(c2ccc(Cl)c(Cl)c2)C1=O)c1cccs1` (stereo not given): 7.3 µM.
The same measure for `Cn1nnnc1Sc1ncnc2scc(-c3cccc4c3sc3ccccc34)c12`: 1.65 µM; for `CC(=O)[C@@]1(O)C(C)CC2C3C=C(C)C4=Cc5c(cnn5-c5ccccc5)C[C@]4(C)C3C(O)C[C@@]21C` (stereo not given in full): 4.03 µM.
The same measure for `CC(=O)Oc1ccc(C(=O)Nc2ccc(C3(C#N)CCCC3)cc2)cc1`: 8.24 µM; for `CCCCNc1c(-c2ccc(SC(C)CC)cc2)nc2ccccn12` (stereo not given): 4.06 µM.
`CCCC(=O)Nc1nc2ccc(NC(=O)c3c(F)c(F)c(OC)c(F)c3F)cc2s1`: the AC50 is 1.56 µM.
For `O=C(NC(=O)N1CCN(c2cccc(Cl)c2)CC1)c1ccc(Cl)cc1` the value was 0.573 µM.
For `Cc1ccccc1NC(=O)C(Cl)=C(Cl)Cl` the value was 7.21 µM.
With `O=C(CSCc1cccc(Cl)c1)Nc1ccccc1-c1ccccc1`, the AC50 is > 19.5 µM (inactive).
Turning to `CC(C)N(C(=O)CSc1nc2ccccc2n1-c1ccccc1)C(C)C`, the AC50 is 7.62 µM.
For `Cc1cccc(NC2=C/C(=N/S(=O)(=O)c3cccs3)c3ccccc3C2=O)c1` the value was 0.934 µM; for `CCCCCCSc1cccc(-c2nc3ccccn3c2NCc2ccccc2)c1`, 5.27 µM.
